Data published in patent publication US20210077469A1, “PHARMACEUTICAL COMBINATIONS OF EGFR INHIBITORS AND METHODS OF USE THEREOF” (DANA-FARBER CANCER INSTITUTE, INC., priority 2018, published 2021).

Target: L858R/T790M EGFR (Homo sapiens, UniProt P00533, L858R/T790M)
Conditions: Ba/F3 cells harboring L858R/T790M EGFR treated with inhibitor; lysates immunoprecipitated by biotinylated Compound A; FIG. 2A
Method: 15-20 μg of proteins lysates were aliquoted and loaded at the same time as the pull down assay to ensure the presence of EGFR protein, phospho-EGFR activity. Tubulin expression was assessed to ensure even loading of gels. 500 μg of protein was incubated with either biotinylated-linker (control) or with biotinylated Compound A for two hours before 50% NeutrAvidin agarose beads (Thermo Fisher Scientific) slurry was added for an hour to precipitate the EGFR that was associated to the biotinylated allosteric inhibitor. The beads were then washed three times with PBS containing 1% IGEPAL and an insulin syringe was used to remove extraneous buffer before the samples were suspended in 2×SDS sample preparation buffer for Western blotting analyses. All experiments were performed at least three times.

Chain of L858R/T790M EGFR (P00533 25-1210 T790M/L858R): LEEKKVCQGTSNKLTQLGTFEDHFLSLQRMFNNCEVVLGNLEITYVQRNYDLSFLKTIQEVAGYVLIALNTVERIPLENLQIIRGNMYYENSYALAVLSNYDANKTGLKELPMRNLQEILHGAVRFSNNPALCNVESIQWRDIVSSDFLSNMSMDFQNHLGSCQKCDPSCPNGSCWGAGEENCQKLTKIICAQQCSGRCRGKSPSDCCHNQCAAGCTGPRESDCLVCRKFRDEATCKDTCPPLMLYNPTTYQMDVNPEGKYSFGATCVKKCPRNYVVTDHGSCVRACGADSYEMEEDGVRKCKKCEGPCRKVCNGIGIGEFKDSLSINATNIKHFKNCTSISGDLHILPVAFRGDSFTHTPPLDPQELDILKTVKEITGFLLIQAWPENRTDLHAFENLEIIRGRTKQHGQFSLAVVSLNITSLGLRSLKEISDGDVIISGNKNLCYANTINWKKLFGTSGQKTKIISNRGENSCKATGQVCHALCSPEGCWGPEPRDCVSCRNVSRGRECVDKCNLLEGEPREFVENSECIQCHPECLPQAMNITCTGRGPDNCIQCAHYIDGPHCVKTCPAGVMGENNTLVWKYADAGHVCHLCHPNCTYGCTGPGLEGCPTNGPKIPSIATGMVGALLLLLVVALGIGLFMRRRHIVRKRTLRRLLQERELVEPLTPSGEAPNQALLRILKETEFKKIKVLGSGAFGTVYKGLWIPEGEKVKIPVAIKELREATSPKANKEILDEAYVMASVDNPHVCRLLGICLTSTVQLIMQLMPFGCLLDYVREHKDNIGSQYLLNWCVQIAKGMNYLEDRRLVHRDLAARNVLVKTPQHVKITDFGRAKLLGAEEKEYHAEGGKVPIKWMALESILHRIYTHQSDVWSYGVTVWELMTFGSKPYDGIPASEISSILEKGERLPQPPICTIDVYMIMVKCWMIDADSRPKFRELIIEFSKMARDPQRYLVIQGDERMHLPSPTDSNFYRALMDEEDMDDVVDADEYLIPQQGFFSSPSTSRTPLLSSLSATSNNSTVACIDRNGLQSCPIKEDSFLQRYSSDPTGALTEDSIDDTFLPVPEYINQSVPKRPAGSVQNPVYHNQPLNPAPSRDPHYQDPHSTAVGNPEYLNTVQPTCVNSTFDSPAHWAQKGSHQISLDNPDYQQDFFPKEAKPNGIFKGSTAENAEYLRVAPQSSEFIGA

interference with binding of Compound A to EGFR: interfere
SMILES: C=CC(=O)Nc1cccc(Oc2nc(Nc3ccc(N4CCN(C)CC4)cc3OC)ncc2Cl)c1 [WZ-4002]
